Type in all cases: cell-based
Assay [1] relates to HepG2 (Liver) cancer cell line. Briefly: Cytotoxic activity (United States NCI protocol), HepG2. The conditions noted are these: Homo sapiens. As for the experimental part: (§1) The cytotoxicity experiment was performed according to the United States NCI protocol, previously reported method. A detailed experimental procedure was given in Supplementary Material ([Premnath et al., 2015]).
(§2) The newly prepared compounds 1a–1j are examined for their cytotoxic activity according to the United States NCI protocol, which was a previously reported method ([Chadha and Silakari, 2017]). The 50% growth inhibition (GI50), tumor growth inhibition (TGI), and lethal concentration (LC50) values were determined. […] Doxorubicin was used as a standard drug. None of the tested derivatives had shown significant activity toward the cancer cell lines. The compounds were also evaluated for their possible cytotoxicity in human embryonic kidney cells (HEK-293), lung cells (MRC-5), and liver cells (LO2) by employing MTT assay. […] The results of cytotoxic screening of compounds (1a–1j) are shown in Table 2, and in vitro cytotoxicity of indole derivatives (1a–1j) on normal cells are shown in Table 3.

The test system of assay [2] is MCF-7 (Breast) cancer cell line. The assay can be described thus: Cytotoxic activity (United States NCI protocol), MCF-7. The conditions noted are these: Homo sapiens; for GI50: 50% growth inhibition; for IC (TGI): tumor growth inhibition. On the procedure: as §1, §2
Assay [3] deals with HeLa (Cervical) cancer cell line. Briefly: Cytotoxic activity (United States NCI protocol), HeLa. Particulars: Homo sapiens; for IC (TGI): read-out: TGI. As for the experimental part: as §1, §2
Another assay deals with lung cells (MRC5). Briefly: In vitro cytotoxicity on normal cells, MTT assay, MRC5. The conditions noted are these: Homo sapiens. As for the experimental part: as §2
(§3) None of the tested derivatives had shown significant activity toward the cancer cell lines. The compounds were also evaluated for the possible cytotoxicity in human embryonic kidney cells (HEK-293), lung cells (MRC5), and liver cells (LO2) by employing MTT assay.

The test system of assay [4] is human embryonic kidney cells (HEK-293). The assay can be described thus: In vitro cytotoxicity on normal cells, MTT assay, HEK-293. The conditions noted are these: HEK293, HEK-293 normal kidney cells. On the procedure: as §2, §3
In the next assay the test system is liver cells (LO2). Briefly: In vitro cytotoxicity on normal cells, MTT assay, LO2. On the procedure: as §2, §3
The mark [5] stands for this setting: HepG2, lethal concentration, read-out: LC50.
[6] abbreviates: HepG2, tumor growth inhibition, read-out: TGI.
[7] abbreviates: MCF7, MCF-7, lethal concentration, read-out: LC50 (the source's name).
[8] abbreviates: 50% growth inhibition, read-out: GI50.
[9] abbreviates: lethal concentration, read-out: LC50 (the source's name).

Read-outs that look alike come from different tables or passages of the source.

Take `COc1ccc(C(N/N=C/c2ccco2)n2ccc3ccccc32)cc1` (centres unmarked) [Compound 1e]: the concentration for 50% growth inhibition (GI50) in assay [1] (HepG2) is 15.9 µM; in assay [2] (MCF7, MCF-7), 24.4 µM; in assay [3] (setting [8]), 34.2 µM. Also, the LC50 (NCI lethal concentration 50%) in assay [1] (setting [5]) came out at 44.8 µM. The IC (TGI) in assay [1] (setting [6]) amounted to 38.2 µM; in assay [2] (MCF7, MCF-7), 59.3 µM; in assay [3] (tumor growth inhibition) it was 72.1 µM. In addition, the results for the CC50 in assay [2] (setting [7]) and in assay [3] (setting [9]) were 66.3 µM and over 100 µM, respectively. Also, the concentration for half-maximal inhibition (IC50) worked out at 72.8 µM in the assay on lung cells (MRC5), 57.1 µM in assay [4] and 56 µM with liver cells (LO2).
For `CN(C)c1ccc(C(N/N=C/c2ccco2)n2ccc3ccccc32)cc1` (centres unmarked) [Compound 1h], the GI50 in assay [1] (HepG2) stood at 21.3 µM; in assay [2] (MCF7, MCF-7), 12.9 µM; in assay [3] (setting [8]) it was 52.9 µM. Besides, the LC50 (NCI lethal concentration 50%) in assay [1] (setting [5]) amounted to 72.1 µM. Further, the IC (TGI) in assay [1] (setting [6]) stood at 41 µM; in assay [2] (MCF7, MCF-7), 45.3 µM; in assay [3] (tumor growth inhibition), 81.3 µM. In addition, the CC50 in assay [2] (setting [7]) was 10.3 µM; in assay [3] (setting [9]), over 100 µM. In addition, the IC50 was 66.3 µM with lung cells (MRC5), 67 µM in assay [4] and 58.2 µM in the assay with liver cells (LO2).
`COc1cc(C(N/N=C/c2ccco2)n2ccc3ccccc32)ccc1O` (centres unmarked) [Compound 1g]: the concentration for 50% growth inhibition (GI50) in assay [1] (HepG2) was 48 µM; in assay [2] (MCF7, MCF-7), 34 µM; in assay [3] (setting [8]), 37.9 µM. Also, the LC50 (NCI lethal concentration 50%) in assay [1] (setting [5]) was 59.3 µM. The IC (TGI) in assay [1] (setting [6]) was found to be 61.3 µM; in assay [2] (MCF7, MCF-7), 67.4 µM; in assay [3] (tumor growth inhibition), 51.9 µM. Besides, the CC50 in assay [2] (setting [7]) is 30.5 µM; in assay [3] (setting [9]), 58.9 µM. The IC50 is 62.6 µM in the assay on lung cells (MRC5), 58.2 µM in assay [4] and 70.5 µM with liver cells (LO2).
In the case of `COc1cccc2c1C(=O)c1c(O)c3c(c(O)c1C2=O)C[C@@](O)(C(=O)CO)C[C@@H]3O[C@H]1C[C@H](N)[C@H](O)[C@H](C)O1` [Doxorubicin, reference compound], the concentration for 50% growth inhibition (GI50) in assay [1] (HepG2) came out at 0.01 µM; in assay [2] (MCF7, MCF-7), 0.02 µM; in assay [3] (setting [8]), 0.05 µM. Also, the IC (TGI) in assay [1] (setting [6]) amounted to 0.13 µM; in assay [2] (MCF7, MCF-7) it was 0.21 µM; in assay [3] (tumor growth inhibition) it was 0.41 µM. For the same molecule, the CC50 in assay [2] (setting [7]) stood at 0.74 µM; in assay [3] (setting [9]), 0.88 µM.
For the molecule `Clc1ccc(C(N/N=C/c2ccco2)n2ccc3ccccc32)cc1` (centres unmarked) [Compound 1d], the GI50 stood at 1 µM in assay [1] (HepG2); 0.89 µM in assay [2] (MCF7, MCF-7); 8.9 µM in assay [3] (setting [8]). Further, in assay [1] (setting [5]), the LC50 (NCI lethal concentration 50%) is 54 µM. The IC (TGI) turned out to be 0.25 µM in assay [1] (setting [6]); 9.3 µM in assay [2] (MCF7, MCF-7); 6.8 µM in assay [3] (tumor growth inhibition). In addition, the CC50 in assay [2] (setting [7]) is 65 µM; in assay [3] (setting [9]), 0.5 µM. The IC50 in the assay on lung cells (MRC5) was found to be 56.2 µM; in assay [4], 79.1 µM; in the assay on liver cells (LO2), 66.2 µM.
On to `Oc1ccc(C(NN=Cc2ccco2)n2ccc3ccccc32)cc1` (centres unmarked) [Compound 1c], for which the GI50 in assay [1] (HepG2) turned out to be 36.3 µM; in assay [3], 41.3 µM. Further, the LC50 (NCI lethal concentration 50%) in assay [1] (HepG2, read-out: LC50) worked out at 0.9 µM. In addition, the IC (TGI) in assay [1] (HepG2, read-out: TGI) is 65.3 µM; in assay [3] it was 87.2 µM. Also, the CC50 in assay [2] (MCF7, read-out: LC50) came out at 0.55 µM; in assay [3] (read-out: LC50) it was 0.5 µM. Besides, the IC50 in the assay with lung cells (MRC5) is 86.7 µM; in assay [4], 81.1 µM; in the assay with liver cells (LO2), 87.1 µM.
For `O=[N+]([O-])c1cccc(C(N/N=C/c2ccco2)n2ccc3ccccc32)c1` (centres unmarked) [Compound 1b], the concentration for 50% growth inhibition (GI50) worked out at 42.2 µM in assay [1] (HepG2); 46.1 µM in assay [2] (MCF7, MCF-7); 51 µM in assay [3] (setting [8]). In addition, the LC50 (NCI lethal concentration 50%) in assay [1] (setting [5]) came to 56.8 µM. Besides, the IC (TGI) in assay [1] (setting [6]) stood at 23.1 µM; in assay [2] (MCF7, MCF-7), 85.1 µM; in assay [3] (tumor growth inhibition) it was 89.2 µM. The CC50 in assay [2] (setting [7]) and in assay [3] (setting [9]) was over 100 µM in each case. Also, the IC50 with lung cells (MRC5) was 67.2 µM; in assay [4], 62.1 µM; in the assay on liver cells (LO2), 72.2 µM.
Consider `Oc1ccccc1C(N/N=C/c1ccco1)n1ccc2ccccc21` (centres unmarked) [Compound 1f], for which the GI50 in assay [1] (HepG2) was 29.1 µM; in assay [2] (MCF7, MCF-7), 18.6 µM; in assay [3] (setting [8]), 21.6 µM. Further, the LC50 (NCI lethal concentration 50%) in assay [1] (setting [5]) turned out to be 57.5 µM. The IC (TGI) in assay [1] (setting [6]) was 46.8 µM; in assay [2] (MCF7, MCF-7), 41.8 µM; in assay [3] (tumor growth inhibition) it was 54.7 µM. Besides, the CC50 in assay [2] (setting [7]) was determined as 42.3 µM; in assay [3] (setting [9]), 77.4 µM. Also, the IC50 with lung cells (MRC5) came out at 51.2 µM; in assay [4] it was 66.2 µM; in the assay with liver cells (LO2), 68.2 µM.
Consider `C(=N\NCn1ccc2ccccc21)/c1ccco1` [Compound 1j], for which the concentration for 50% growth inhibition (GI50) is 40.3 µM in assay [1] (HepG2); 56 µM in assay [2] (MCF7, MCF-7); 2.3 µM in assay [3] (setting [8]). Further, in assay [1] (setting [5]), the LC50 (NCI lethal concentration 50%) came out at 66.8 µM. In addition, the IC (TGI) in assay [1] (setting [6]) came to 45.3 µM; in assay [2] (MCF7, MCF-7), 49.3 µM; in assay [3] (tumor growth inhibition) it was 58.3 µM. Besides, the CC50 amounted to 78.6 µM in assay [2] (setting [7]) and 48.3 µM in assay [3] (setting [9]). For the same molecule, the half-inhibitory concentration (IC50) in the assay with lung cells (MRC5) came out at 75.1 µM; in assay [4], 52.7 µM; in the assay on liver cells (LO2) it was 70.1 µM.
`C(=N\NC(c1ccccc1)n1ccc2ccccc21)/c1ccco1` (centres unmarked) [Compound 1a] had a 50% growth inhibitory concentration (GI50) in assay [1] (HepG2) of 43.2 µM. For the same molecule, the LC50 (NCI lethal concentration 50%) in assay [1] (HepG2, read-out: LC50) was over 100 µM. Moreover, the IC (TGI) in assay [1] (HepG2, read-out: TGI) stood at 78.3 µM. Also, the CC50 was over 100 µM in assay [2] (MCF7, read-out: LC50) and 100 µM in assay [3] (read-out: LC50). For the same molecule, the results for the IC50 (in the assay on lung cells (MRC5); in assay [4]; with liver cells (LO2)) were 76.4 µM, 70.1 µM and 67.5 µM, respectively.

The values above are taken from PMC8144490, “Synthesis and Cytotoxic Activity of Novel Indole Derivatives and Their in silico Screening on Spike Glycoprotein of SARS-CoV-2” (Frontiers in Molecular Biosciences, 2021).
